Read-outs that look alike come from different tables or passages of the source.
Legend:
osteosarcoma = settings: over 16,000 unique patients, post-market analysis; cited from earlier work
[1] = cited from earlier work; for bioavailability: after subcutaneous injection
distal radial fracture = settings: cited from earlier work; for time to radiographic healing: placebo 9.1 weeks
[2] = in vivo, sc
From the text: (§1) As used herein “peak concentration (CMAX) of PTH peptide in a blood plasma”, “area under concentration vs. time curve (AUC) of PTH peptide in a blood plasma”, “time to maximal plasma concentration (tMAX) of PTH peptide in a blood plasma” are pharmacokinetic parameters known to one skilled in the art. […] The “concentration vs. time curve” measures the concentration of PTH peptide in a blood serum of a subject vs. time after administration of a dosage of PTH peptide to the subject either by intranasal, intramuscular, subcutaneous, or other parenteral route of administration. “CMAX” is the maximum concentration of PTH peptide in the blood serum of a subject following a single dosage of PTH peptide to the subject. “TMAX” is the time to reach maximum concentration of PTH peptide in a blood serum of a subject following administration of a single dosage of PTH peptide to the subject. […] Mean changes of teriparatide acetate (in picograms per liter) in plasma after a single subcutaneous injection of teriparatide (filled circle 56.5 μg, filled triangle 28.2 μg) to 360 min. Bars represent standard deviation.

tibial fractures = settings: rats, after 20 and 40 days of healing, cited from earlier work
[3] = Plasma teriparatide concentrations after a single subcutaneous injection (FIG. 9); settings: sc
From the text: as §1

stress fractures (DTSFs) = experiment: Teriparatide therapy of stress fractures in NCAA collegiate athletes (FIG. 8); assay type: in vivo, humans; settings: 20 mcg dose, at least 28 days
From the text: The current disclosure has administered teriparatide at the 20 mcg dose to young adult NCAA collegiate athletes who have DTSFs. Our promising clinical findings, see, e.g., FIG. 8, have led us to hypothesize that teriparatide will have a positive effect on bone healing and return to duty among service members with DTSFs. While a dosage of 20 mcg has been found effective, other dosages are considered within the scope of this application such as ranges from 5-50 mcg, 10-40 mcg, 15-35 mcg, 20-30 mcg, etc. In one embodiment, the preferred range is 10 mcg-40 mcg.
The PTH peptide can also be administered in conjunction with other therapeutic agents such as bisphonates, calcium, vitamin D, estrogen or estrogen-receptor binding compounds, selective estrogen receptor modulators (SERMs), bone morphogenic proteins and/or calcitonin. In one embodiment, 500 mg calcium may be administered daily for the duration of treatment with teriparatide. Vitamin D may also be administered along with teriparatide. Unless a patient is hypercalemic, defined as a total serum calcium concentration >10.4 mg/dL (>2.60 mmol/L) or ionized serum calcium >5.2 mg/dL (>1.30 mmol/L), calcium would be used as part of the treatment regimen. For patients with low vitamin D concentrations, defined as a 25(OH)D concentration of 12 to 20 ng/mL (30 to 50 nmol/L), Vitamin D may also be administered during treatment descried herein. […]

Compound: CC[C@H](C)[C@H](NC(=O)[C@H](CCC(=O)O)NC(=O)[C@H](CO)NC(=O)[C@@H](NC(=O)[C@@H](N)CO)C(C)C)C(=O)N[C@@H](CCC(N)=O)C(=O)N[C@@H](CC(C)C)C(=O)N[C@@H](CCSC)C(=O)N[C@@H](Cc1cnc[nH]1)C(=O)N[C@@H](CC(N)=O)C(=O)N[C@@H](CC(C)C)C(=O)NCC(=O)N[C@@H](CCCCN)C(=O)N[C@@H](Cc1cnc[nH]1)C(=O)N[C@@H](CC(C)C)C(=O)N[C@@H](CC(N)=O)C(=O)N[C@@H](CO)C(=O)N[C@@H](CCSC)C(=O)N[C@@H](CCC(=O)O)C(=O)N[C@@H](CCCN=C(N)N)C(=O)N[C@H](C(=O)N[C@@H](CCC(=O)O)C(=O)N[C@@H](Cc1c[nH]c2ccccc12)C(=O)N[C@@H](CC(C)C)C(=O)N[C@@H](CCCN=C(N)N)C(=O)N[C@@H](CCCCN)C(=O)N[C@@H](CCCCN)C(=O)N[C@@H](CC(C)C)C(=O)N[C@@H](CCC(N)=O)C(=O)N[C@@H](CC(=O)O)C(=O)N[C@H](C(=O)N[C@@H](Cc1cnc[nH]1)C(=O)N[C@@H](CC(N)=O)C(=O)N[C@@H](Cc1ccccc1)C(=O)O)C(C)C)C(C)C [teriparatide]
- reported cases of osteosarcoma in humans (osteosarcoma): have not been any reported cases
- bioavailability [1]: 95%
- Absolute bioavailability ([1]; subcutaneous injection): 95%
- half-life ([1]; subcutaneous injection): approximately 1 hour
- half-life after subcutaneous injection ([1]; subcutaneous injection): approximately 1 hours
- time to peak concentrations ([1]; subcutaneous injection): 30 min
- time to healing compared with placebo group (distal radial fracture; 20 mcg daily for 8 weeks): shorter
- time to radiographic healing (distal radial fracture; 20 mcg daily for 8 weeks): 7.4 weeks
- improvement in healing time compared with placebo (distal radial fracture; 40 mcg daily for 8 weeks): not a statistically significant improvement
- time to radiographic healing (distal radial fracture; 40 mcg daily for 8 weeks): 8.8 weeks
- AUCinf ([2]; 28.2 ug): 28.07 ± 2.47 ng/min/mL
- AUClast ([2]; 28.2 ug): 25.84 ± 3.18 ng/min/mL
- AUCinf ([2]; 56.5 ug): 52.73 ± 10.03 ng/min/mL
- AUClast ([2]; 56.5 ug): 49.91 ± 11.33 ng/min/mL
- time after the injection at which Cmax was achieved ([2]; 56.5 ug): 1 h
- mechanical strength of fractures (tibial fractures; 60 and 200 kg/day once daily): increased
- callus quantity (tibial fractures; once daily): increased
- Cmax ([3]; 28.2 ug): 0.193 ± 0.0353 ng/mL
- Tmax ([3]; 28.2 ug): 0.9 h
- half-life ([3]; 28.2 ug): 1.16 ± 0.217 h
- Cmax ([3]; 56.5 ug): 0.338 ± 0.134 ng/mL
- Tmax ([3]; 56.5 ug): 0.875 h
- half-life ([3]; 56.5 ug): 1.29 ± 0.587 h
- healing of the subjects' stress fractures (stress fractures (DTSFs)): resulted in healing

Compound: PTH 1-84: full-length human parathyroid hormone, an 84 amino acids peptide with N-terminal and C-terminal regions
- bioavailability [1]: 55%
- duration of action ([1]; compared with PTH 1-34): longer
- half-life after subcutaneous injection ([1]; subcutaneous injection): approximately 2.5 hours

— patent publication US20210046162A1, “Teriparatide Use for Bone Stress Fractures/Reactions” (University of South Carolina, priority 2019, published 2021)
